Results on two compounds are retold here after patent US20110312513A1, “BIOMARKERS FOR PREDICTING SUSTAINED RESPONSE TO HCV TREATMENT” (ROCHE MOLECULAR SYSTEMS, INC., priority 2009, published 2011).

The structures appear in SMILES notation.

Series [1] in a line: Phase II clinical trial of RO4588161: premature withdrawal for safety reasons. Type of series: in vivo, human. As to conditions: among the 104 evaluable patients. From the text: A screening period (time from the first screening assessment to the first administration of test drug) of 35 days preceded the treatment portion of the trial (FIG. 1). The HCV genotype and HCV RNA titer of each patient was confirmed during the screening period and only treatment-naïve patients with HCV genotype-1 and HCV RNA titer ≧50,000 IU/mL were eligible for enrollment.
One hundred and seven male and female patients between 18 and 66 years of age were enrolled into the study.

The next series relates to HCV. As to conditions: monotherapy; cited from earlier work.

In the case of `CC(C)C(=O)OC[C@@]1(N=[N+]=[N-])O[C@@H](n2ccc(N)nc2=O)[C@H](OC(=O)C(C)C)[C@@H]1OC(=O)C(C)C` [RO4588161, Isobutyric acid (2R,3S,4R,5R)-5-(4-amino-2-oxo-2H-pyrimidin-1-yl)-2-azido-3,4-bis-isobutyryloxy-tetrahydro-furan-2-ylmethyl ester], the “patients who prematurely withdrew for safety reasons from treatment” value in series [1] was 43 patients.

`NC(=O)c1ncn([C@@H]2O[C@H](CO)[C@@H](O)[C@H]2O)n1` [ribavirin, 1-((2R,3R,4S,5R)-3,4-Dihydroxy-5-hydroxymethyl-tetrahydro-furan-2-yl)-1H-[1,2,4]triazole-3-carboxylic acid amide]: the “patients who prematurely withdrew for safety reasons from treatment” value in series [1] amounted to 5 patients. Moreover, in the series with HCV, the “effect on serum levels of HCV-RNA” value is given as “does not lower serum levels of HCV-RNA” and the “patients with serum amino transferase levels reduced to normal” value is recorded as 40%.
